Measured values from US11524940B1, “Inhibitors of cysteine proteases and methods of use thereof” (priority 2020, dated 2022).
pEC50: −log10 of the molar value.

Target: 229E Mpro (Human coronavirus 229E (HCoV-229E), UniProt P0C6X1)
Experiment: 229E Mpro activity
Format: biochemical
Conditions: read-out: 229E Mpro EC50
Method: Compounds are assayed using standard methods to assess compound activity and IC50. […] The assay buffer contains 20 mM of Tris-HCl (pH 7.3), 100 mM of NaCl, 1 mM of EDTA, 5mM of TCEP and 0.1% BSA.

Chain of 229E Mpro (P0C6X1 2966-3267 limits assumed): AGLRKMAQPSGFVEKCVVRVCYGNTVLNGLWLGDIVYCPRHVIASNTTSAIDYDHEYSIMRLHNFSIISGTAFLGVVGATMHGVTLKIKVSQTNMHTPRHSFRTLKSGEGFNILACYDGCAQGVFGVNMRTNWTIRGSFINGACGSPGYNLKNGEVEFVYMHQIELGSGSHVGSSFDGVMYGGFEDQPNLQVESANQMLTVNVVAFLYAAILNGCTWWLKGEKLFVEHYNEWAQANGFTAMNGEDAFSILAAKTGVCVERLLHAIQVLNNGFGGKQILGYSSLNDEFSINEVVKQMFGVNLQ

Row | SMILES | pEC50
1 | COc1cccc2[nH]c(C(=O)N3C[C@H](C(F)(F)F)C[C@H]3C(=O)N[C@H](C#N)C[C@@H]3CCNC3=O)cc12 [Compound 549, (2S,4R)-N-[(1S)-1-cyano-2-[(3S)-2-oxopyrrolidin-3-yl]ethyl]-1-(4-methoxy-1H-indole-2-carbonyl)-4-(trifluoromethyl)pyrrolidine-2-carboxamide] | > 5.70
2 | COc1cccc2[nH]c(C(=O)N3C[C@H](SC)C[C@H]3C(=O)N[C@H](C#N)C[C@@H]3CCNC3=O)cc12 [Compound 551, (2S,4R)-N-[(1S)-1-cyano-2-[(3S)-2-oxopyrrolidin-3-yl]ethyl]-1-(4-methoxy-1H-indole-2-carbonyl)-4-methylsulfanyl-pyrrolidine-2-carboxamide] | > 5.70
3 | CCCNC(=O)OC(C#N)[C@H](C[C@@H]1CCNC1=O)NC(=O)[C@H](CC(C)C)NC(=O)c1cc2c(OC)cccc2[nH]1 (stereo partly drawn) [Compound 581] | < 4.52
4 | COc1cccc2[nH]c(C(=O)N[C@@H](CC(C)C)C(=O)N[C@@H](C[C@@H]3CCNC3=O)C(C#N)OC(=O)NC(C)C)cc12 (stereo partly drawn) [Compound 583] | < 4.52
5 | COc1cccc2[nH]c(C(=O)N3C[C@H](c4ccccc4)C[C@H]3C(=O)N[C@H](C#N)C[C@@H]3CCCNC3=O)cc12 [Compound 611, (2S,4S)-N-[(1S)-1-cyano-2-[(3S)-2-oxo-3-piperidyl]ethyl]-1-(4-methoxy-1H-indole-2-carbonyl)-4-phenyl-pyrrolidine-2-carboxamide] | > 5.70
6 | COc1ccc2[nH]c(C(=O)N[C@@H](CC3CC3)C(=O)N[C@H](C#N)C[C@@H]3CCCNC3=O)cc2c1 [Compound 619, N-[(1S)-2-[[(1S)-1-cyano-2-[(3S)-2-oxo-3-piperidyl]ethyl]amino]-1-(cyclopropylmethyl)-2-oxo-ethyl]-5-methoxy-1H-indole-2-carboxamide] | > 5.70
7 | COc1ccc2[nH]c(C(=O)N[C@@H](CC3CC3)C(=O)N[C@H](C#N)C[C@@H]3CCCNC3=O)cc2n1 [Compound 621, N-[(1S)-2-[[(1S)-1-cyano-2-[(3S)-2-oxo-3-piperidyl]ethyl]amino]-1-(cyclopropylmethyl)-2-oxo-ethyl]-5-methoxy-1H-pyrrolo[3,2-b]pyridine-2-carboxamide] | > 5.70
8 | COc1nccc2[nH]c(C(=O)N[C@@H](CC3CC3)C(=O)N[C@H](C#N)C[C@@H]3CCCNC3=O)cc12 [Compound 623, N-[(1S)-2-[[(1S)-1-cyano-2-[(3S)-2-oxo-3-piperidyl]ethyl]amino]-1-(cyclopropylmethyl)-2-oxo-ethyl]-4-methoxy-1H-pyrrolo[3,2-c]pyridine-2-carboxamide] | < 4.52
9 | N#C[C@H](C[C@@H]1CCCNC1=O)NC(=O)[C@H](CC1CC1)NC(=O)c1cc2cnccc2[nH]1 [Compound 625, N-((S)-1-(((S)-1-cyano-2-((S)-2-oxopiperidin-3-yl)ethyl)amino)-3-cyclopropyl-1-oxopropan-2-yl)-1H-pyrrolo[3,2-c]pyridine-2-carboxamide] | > 5.70
10 | N#C[C@H](C[C@@H]1CCCNC1=O)NC(=O)[C@H](CC1CC1)NC(=O)c1cc2cc(Cl)ccc2[nH]1 [Compound 633, 5-chloro-N-[(1S)-2-[[(1S)-1-cyano-2-[(3S)-2-oxo-3-piperidyl]ethyl]amino]-1-(cyclopropylmethyl)-2-oxo-ethyl]-1H-indole-2-carboxamide] | > 5.70
11 | N#C[C@H](C[C@@H]1CCCNC1=O)NC(=O)[C@@H](CC1CC1)NC(=O)c1cc2cccc(Cl)c2[nH]1 [Compound 639A, 7-Chloro-N-[(1R)-2-[[(1S)-1-cyano-2-[(3S)-2-oxo-3-piperidyl]ethyl]amino]-1-(cyclopropylmethyl)-2-oxo-ethyl]-1H-indole-2-carboxamide] | > 5.70
12 | N#C[C@H](C[C@@H]1CCNC1=O)NC(=O)[C@H](CC1CC1)NC(=O)c1cc2c(Cl)cccc2[nH]1 [Compound 647, 4-chloro-N-[(1S)-2-[[(1S)-1-cyano-2-[(3S)-2-oxopyrrolidin-3-yl]ethyl]amino]-1-(cyclopropylmethyl)-2-oxo-ethyl]-1H-indole-2-carboxamide] | > 5.70
